The values that follow come from article PMC7571299 (ACS Pharmacology & Translational Science, 2020).

SMILES strings stand for the structures. Entries after “also recorded” stand apart in the source; their conditions may differ. Like-named read-outs stand apart in the source and are kept apart here.

Data set [1] deals with SARS-CoV-2. The data set is classed as cell-based.
Data set [2] relates to SARS-CoV-2 Isolate USA-WA1/2020. As to the kind of experiment: Vero E6 cell assay. The data set is classed as cell-based.
The conditions of data set [3]: cited from earlier work.
In data set [4] the test system is Vero E6 cells. The following applies: Vero E6, absence of virus, UTHSC.
The test system of data set [5] is SARS-CoV-2. Format: cell-based. This is another data set of the same source.
Data set [6] deals with SARS-CoV-2. The following applies: cited from earlier work; for Activity in NCATS CPE experiments: NCATS HTS.

For orientation: EC50 means the concentration giving half of the maximal effect. The half-life is the time in which the quantity being followed falls by half. The term CC50 denotes the concentration that lowers cell viability or growth by half. In turn, `CCNCc1cc(Nc2ccnc3cc(Cl)ccc23)ccc1O` [N-monodesethyl amodiaquine] gave an EC50 in data set [1] of 4 µM. Besides, the “Antiviral activity compared to chloroquine” value in data set [2] was “almost inactive”. Moreover, the half-life is ~20.8 days in data set [3] and “over 3 weeks” in data set [3] (human, in vivo). The compound also had a CC50 in data set [4] of 5.9 µM.
For `Nc1c(Br)cc(Br)cc1CN[C@H]1CC[C@H](O)CC1` [ambroxol], the “Reduction of virus titer” value in data set [5] is “inactive; also recorded: Neither primaquine nor ambroxol were found to reduce the virus titer”. Besides, in data set [6], the “Activity in NCATS CPE experiments” value is given as “low activity”.
Consider `CCN(CC)Cc1cc(Nc2ccnc3cc(Cl)ccc23)ccc1O` [amodiaquine], for which the half-life in data set [3] was 0.12 days. Further, the “Activity in NCATS CPE experiments” value in data set [6] is listed as “high activity”.
In the case of `CN(Cc1cc(Br)cc(Br)c1N)C1CCCCC1` [bromhexine], in data set [6], the “Activity in NCATS CPE experiments” value is recorded as “found active”. For the same compound, the concentration giving a half-maximal response (EC50) in data set [6] (read-out: EC50 in CPE assay, NCATS) is 13.9 µM.
Consider `CCN(CC)CCCC(C)Nc1ccnc2cc(Cl)ccc12` (centres unmarked) [chloroquine], for which the “Reduction of virus titer” value in data set [5] is “did not reduce the virus titer”.
Regarding `O=C(OCC(O)CO)c1ccccc1Nc1ccnc2cc(Cl)ccc12` (centres unmarked) [glafenine], the “Activity in NCATS CPE experiments” value in data set [6] is on record as “low activity”.
`CC(COc1ccccc1)NC(C)C(O)c1ccc(O)cc1` (centres unmarked) [isoxsuprine]: in data set [6], the “Activity in NCATS CPE experiments” value is given as “low activity”.
As to `OC(CNCC(O)C1CCc2cc(F)ccc2O1)C1CCc2cc(F)ccc2O1` (centres unmarked) [nebivolol], in data set [5], the “Reduction of virus titer” value is reported as “more than 1 log units”. Further, in data set [6], the “Activity in NCATS CPE experiments” value is given as “poor activity”.
As to `Cc1[nH]c2ccccc2c1CCNCc1ccc(/C=C/C(=O)NO)cc1` [panobinostat], the “Activity in NCATS CPE experiments” value in data set [6] was “low activity”.
Regarding `CCCCc1nc2cc(/C=C/C(=O)NO)ccc2n1CCN(CC)CC` [pracinostat], the “Activity in NCATS CPE experiments” value in data set [6] is listed as “low activity”.
As for `COc1cc(NC(C)CCCN)c2ncccc2c1` (centres unmarked) [primaquine], the “Reduction of virus titer” value in data set [5] is reported as “Neither primaquine nor ambroxol were found to reduce the virus titer”. For the same compound, the “Antiviral activity at the tested concentrations” value in data set [1] (UTHSC dose response) is reported as “did not exhibit appreciable activity”. In addition, the “Antiviral activity in dose-response experiment in comparison with chloroquine” value in data set [2] is “no appreciable activity”.
Turning to `CCC(CC)COC(=O)[C@H](C)N[P@](=O)(OC[C@H]1O[C@@](C#N)(c2ccc3c(N)ncnn23)[C@H](O)[C@@H]1O)Oc1ccccc1` [remdesivir], the “Reduction of virus titer” value in data set [5] is 3–4 log units.
In the case of `O=C(CCCCCCC(=O)Nc1ccccc1)NO` [vorinostat], the “Activity in NCATS CPE experiments” value in data set [6] is reported as “low activity”.
In the case of `OCCN1CCN(CC/C=C2/c3ccccc3Sc3ccc(Cl)cc32)CC1` [zuclopenthixol], in data set [5], the “Reduction of virus titer” value is “more than 1 log unit”. Moreover, in data set [1] (8.33 μM, UTHSC), the Peak of activity is reported as 80%. Moreover, in data set [3] (listed as ZPX), the bioavailability result is given as “about 50%”.
